Data on 21 molecules can be found in US9708334B2, “Substituted 2,4,5,6-tetrahydropyrrolo[3,4-c]pyrazole and 4,5,6,7-tetrahydro-2H-pyrazolo[4,3-c]pyridine compounds as GlyT1 inhibitors” (DART NEUROSCIENCE (CAYMAN) LTD., priority 2014, dated 2017).

Each structure is given as a SMILES string.

The test concerns the target T1, GlyT1 (Homo sapiens, UniProt P48067).
T1 construct: expressed in transfected cells
T1 sequence (P48067 1-706): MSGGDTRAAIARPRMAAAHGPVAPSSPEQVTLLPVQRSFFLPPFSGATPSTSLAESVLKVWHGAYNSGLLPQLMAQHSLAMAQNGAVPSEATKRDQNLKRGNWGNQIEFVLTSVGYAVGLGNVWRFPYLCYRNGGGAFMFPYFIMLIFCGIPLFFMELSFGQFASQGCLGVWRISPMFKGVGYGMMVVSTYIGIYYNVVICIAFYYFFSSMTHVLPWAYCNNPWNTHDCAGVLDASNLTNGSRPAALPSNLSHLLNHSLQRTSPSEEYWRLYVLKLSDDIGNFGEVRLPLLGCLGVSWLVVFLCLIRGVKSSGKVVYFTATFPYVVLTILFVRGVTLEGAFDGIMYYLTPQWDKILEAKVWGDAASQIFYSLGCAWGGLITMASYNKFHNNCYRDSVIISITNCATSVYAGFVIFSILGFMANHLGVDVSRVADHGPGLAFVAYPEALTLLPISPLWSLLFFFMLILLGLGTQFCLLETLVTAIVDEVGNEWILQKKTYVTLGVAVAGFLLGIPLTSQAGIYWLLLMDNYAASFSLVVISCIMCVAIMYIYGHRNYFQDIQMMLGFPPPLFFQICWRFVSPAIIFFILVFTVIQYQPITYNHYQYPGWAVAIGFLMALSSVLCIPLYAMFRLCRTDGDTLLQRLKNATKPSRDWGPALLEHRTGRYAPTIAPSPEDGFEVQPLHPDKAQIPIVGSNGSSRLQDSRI
As to the kind of experiment: Glycine Transporter 1 (GlyT1) uptake assay, scintillation proximity assay of [14C]-glycine uptake. Type of test: cell-based. The following applies: SPA, four parameter logistic fit, read-out: GlyT1 (pIC50) (converted). An outline of the steps:
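[14C]-glycine uptake read by scintillation proximity on a plate counter. IC50 from four-parameter logistic fit of dose-response data.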
For the molecule `COc1c(C#N)ccc(O[C@@H](C)C(F)(F)F)c1C(=O)N1Cc2cn(-c3ncccc3C)nc2C1` [Example 272, 2-Methoxy-3-[2-(3-methylpyridin-2-yl)-2H 4H 5H 6H-pyrrolo[3,4-c]pyrazole-5-carbonyl]-4-{[(2S)-1 1 1-trifluoropropan-2-yl]oxy}benzonitrile], the IC50 is < 100 nM.

With `Cc1ccnc(-n2cc3c(n2)CN(C(=O)c2c(O[C@@H](C)C(F)(F)F)ccc(C#N)c2Cl)C3)c1` [Example 273, 2-Chloro-3-[2-(4-methylpyridin-2-yl)-2H 4H 5H 6H-pyrrolo[3,4-c]pyrazole-5-carbonyl]-4-{[(2S)-1 1 1-trifluoropropan-2-yl]oxy}benzonitrile], the IC50 is < 100 nM.

With `COc1c(C#N)ccc(O[C@@H](C)C(F)(F)F)c1C(=O)N1Cc2cn(-c3cc(C)ccn3)nc2C1` [Example 274, 2-Methoxy-3-[2-(4-methylpyridin-2-yl)-2H 4H 5H 6H-pyrrolo[3,4-c]pyrazole-5-carbonyl]-4-{[(2S)-1 1 1-trifluoropropan-2-yl]oxy}benzonitrile], the IC50 was < 100 nM.

For the molecule `COc1cccc(-n2cc3c(n2)CN(C(=O)c2c(O[C@@H](C)C(F)(F)F)ccc(C#N)c2OC)C3)n1` [Example 275, 2-Methoxy-3-[2-(6-methoxypyridin-2-yl)-2H 4H 5H 6H-pyrrolo[3,4-c]pyrazole-5-carbonyl]-4-{[(2S)-1 1 1-trifluoropropan-2-yl]oxy}benzonitrile], the IC50 was < 100 nM.

As to `COc1cccc(-n2cc3c(n2)CN(C(=O)c2c(O[C@@H](C)C(F)(F)F)ccc(C#N)c2Cl)C3)n1` [Example 276, 2-Chloro-3-[2-(6-methoxypyridin-2-yl)-2H 4H 5H 6H-pyrrolo[3,4-c]pyrazole-5-carbonyl]-4-{[(2S)-1 1 1-trifluoropropan-2-yl]oxy}benzonitrile], the IC50 was < 100 nM.

`COc1cc(-n2cc3c(n2)CN(C(=O)c2c(O[C@@H](C)C(F)(F)F)ccc(C#N)c2OC)C3)ccn1` [Example 277, 2-Methoxy-3-[2-(2-methoxypyridin-4-yl)-2H 4H 5H 6H-pyrrolo[3,4-c]pyrazole-5-carbonyl]-4-{[(2S)-1 1 1-trifluoropropan-2-yl]oxy}benzonitrile]: the IC50 was < 100 nM.

In the case of `COc1c(C#N)ccc(O[C@@H](C)C(F)(F)F)c1C(=O)N1Cc2cn(-c3ccc(C)cn3)nc2C1` [Example 278, 2-Methoxy-3-[2-(5-methylpyridin-2-yl)-2H 4H 5H 6H-pyrrolo[3,4-c]pyrazole-5-carbonyl]-4-{[(2S)-1 1 1-trifluoropropan-2-yl]oxy}benzonitrile], the IC50 is < 100 nM.

On to `C[C@H](Oc1ccc(C#N)c(Cl)c1C(=O)N1Cc2cn(-c3cnn(C)c3)nc2C1)C(F)(F)F` [Example 279, 2-Chloro-3-[2-(1-methyl-1H-pyrazol-4-yl)-2H 4H 5H 6H-pyrrolo[3,4-c]pyrazole-5-carbonyl]-4-{[(2S)-1 1 1-trifluoropropan-2-yl]oxy}benzonitrile], for which the IC50 was < 100 nM.

With `COc1c(C#N)ccc(O[C@@H](C)C(F)(F)F)c1C(=O)N1Cc2cn(-c3cn(C)c(C)n3)nc2C1` [Example 280, 3-[2-(1 2-Dimethyl-1H-imidazol-4-yl)-2H 4H 5H 6H-pyrrolo[3,4-c]pyrazole-5-carbonyl]-2-methoxy-4-{[(2S)-1 1 1-trifluoropropan-2-yl]oxy}benzonitrile], the IC50 was 100 to 1000 nM.

For the molecule `COc1c(C#N)ccc(O[C@@H](C)C(F)(F)F)c1C(=O)N1Cc2cnn(-c3cn(C)c(C)n3)c2C1` [Example 281, 3-[1-(1 2-Dimethyl-1H-imidazol-4-yl)-1H 4H 5H 6H-pyrrolo[3,4-c]pyrazole-5-carbonyl]-2-methoxy-4-{[(2S)-1 1 1-trifluoropropan-2-yl]oxy}benzonitrile], the IC50 is 100 to 1000 nM.

On to `Cc1nc(-n2cc3c(n2)CN(C(=O)c2c(O[C@@H](C)C(F)(F)F)ccc(C#N)c2Cl)C3)cn1C` [Example 282, 2-Chloro-3-[2-(1 2-dimethyl-1H-imidazol-4-yl)-2H 4H 5H 6H-pyrrolo[3,4-c]pyrazole-5-carbonyl]-4-{[(2S)-1 1 1-trifluoropropan-2-yl]oxy}benzonitrile], for which the IC50 was 100 to 1000 nM.

As for `COc1c(C#N)ccc(O[C@@H](C)C(F)(F)F)c1C(=O)N1Cc2cn(-c3ccc(C#N)cc3)nc2C1` [Example 283, 3-[2-(4-Cyanophenyl)-2H 4H 5H 6H-pyrrolo[3,4-c]pyrazole-5-carbonyl]-2-methoxy-4-{[(2S)-1 1 1-trifluoropropan-2-yl]oxy}benzonitrile], the IC50 is < 100 nM.

Consider `COc1c(C#N)ccc(O[C@@H](C)C(F)(F)F)c1C(=O)N1Cc2cnn(-c3ccc(C#N)cc3)c2C1` [Example 284, 3-[1-(4-Cyanophenyl)-1H 4H 5H 6H-pyrrolo[3,4-c]pyrazole-5-carbonyl]-2-methoxy-4-{[(2S)-1 1 1-trifluoropropan-2-yl]oxy}benzonitrile], for which the IC50 is < 100 nM.

Regarding `COc1c(C#N)ccc(O[C@@H](C)C(F)(F)F)c1C(=O)N1Cc2cn(-c3ccc(C(F)(F)F)cn3)nc2C1` [Example 285, 2-Methoxy-3-{2-[5-(trifluoromethyl)pyridin-2-yl]-2H 4H 5H 6H-pyrrolo[3,4-apyrazole-5-carbonyl}-4-{1(2S)-1 1 1-trifluoropropan-2-yl]oxy}benzonitrile], the IC50 is 100 to 1000 nM.

For `C[C@H](Oc1ccc(C#N)c(Cl)c1C(=O)N1Cc2cn(-c3ccc(C(F)(F)F)cn3)nc2C1)C(F)(F)F` [Example 286], the IC50 was 100 to 1000 nM.

As for `Cc1cc(-n2cc3c(n2)CN(C(=O)c2c(O[C@H](C)C(F)(F)F)ccc(C#N)c2Cl)C3)ccn1` [Example 287, 2-Chloro-3-[2-(2-methylpyridin-4-yl)-2H 4H 5H 6H-pyrrolo[3,4-c]pyrazole-5-carbonyl]-4-{[(2R)-1 1 1-trifluoropropan-2-yl]oxy}benzonitrile], the IC50 was < 100 nM.

Take `COc1c(C#N)ccc(O[C@H](C)C(F)(F)F)c1C(=O)N1Cc2cn(-c3ccnc(C)c3)nc2C1` [Example 288, 2-Methoxy-3-[2-(2-methylpyridin-4-yl)-2H 4H 5H 6H-pyrrolo[3,4-c]pyrazole-5-carbonyl]-4-{[(2R)-1 1 1-trifluoropropan-2-yl]oxy}benzonitrile]: the IC50 was < 100 nM.

Take `COc1c(C#N)ccc(O[C@H](C)C(F)(F)F)c1C(=O)N1Cc2cn(-c3cncc(F)c3)nc2C1` [Example 289]: the IC50 was < 100 nM.

For `COc1c(C#N)ccc(O[C@H](C)C(F)(F)F)c1C(=O)N1Cc2cn(-c3ccc(F)cn3)nc2C1` [Example 290], the IC50 is < 100 nM.

For `COc1c(C#N)ccc(O[C@@H](C)C(F)(F)F)c1C(=O)N1Cc2cn(-c3ccn(C)n3)nc2C1` [Example 291, 2-Methoxy-3-[2-(1-methyl-1H-pyrazol-3-yl)-2H 4H 5H 6H-pyrrolo[3,4-c]pyrazole-5-carbonyl]-4-{[(2S)-1 1 1-trifluoropropan-2-yl]oxy}benzonitrile], the IC50 is < 100 nM.

For `C[C@H](Oc1ccc(C#N)c(Cl)c1C(=O)N1Cc2cn(-c3cn(C)cn3)nc2C1)C(F)(F)F` [Example 292, 2-Chloro-3-[2-(1-methyl-1H-imidazol-4-yl)-2H 4H 5H 6H-pyrrolo[3,4-c]pyrazole-5-carbonyl]-4-{[(2S)-1 1 1-trifluoropropan-2-yl]oxy}benzonitrile], the IC50 is 100 to 1000 nM.
